The values that follow come from patent US20050197350A1, “Novel quinoline, tetrahydroquinazoline, and pyrimidine derivatives and methods of treatment related to the use thereof” (TAISHO PHARMACEUTICAL CO., LTD., priority 2003, published 2005).

Like-named read-outs stand apart in the source and are kept apart here.

In the assay the test system is MCH receptors. The experiment in a line: MCH receptor activity class (method not given).
The mark [1] stands for this setting: MCH receptor, class by percent of control at 10^-7 M or IC50.

On to `Cc1cc(N(C)C)nc(N[C@H]2CC[C@@H](C(=O)NCc3cccc(I)c3)CC2)n1` [Example 2571, cis-4-{[4-(dimethylamino)-6-methylpyrimidin-2-yl]amino}-N-(3-iodobenzyl)cyclohexanecarboxamide], for which the class was found to be 1.
On the same count and under the same terms, with `Cc1cc(N(C)C)nc(N[C@H]2CC[C@@H](C(=O)NCc3ccc(Cl)cc3Cl)CC2)n1` [Example 2572, cis-N-(2,4-dichlorobenzyl)-4-{[4-(dimethylamino)-6-methylpyrimidin-2-yl]amino}cyclohexanecarboxamide] the figure was 1.
`Cc1cc(N(C)C)nc(N[C@H]2CC[C@@H](C(=O)NCc3cc(Cl)ccc3Cl)CC2)n1` [Example 2573, cis-N-(2,5-dichlorobenzyl)-4-{[4-(dimethylamino)-6-methylpyrimidin-2-yl]amino}cyclohexanecarboxamide]: the class stood at 1.
As for `Cc1ccc(CNC(=O)[C@H]2CC[C@@H](Nc3nc(C)cc(N(C)C)n3)CC2)cc1` [Example 2574, cis-4-{[4-(dimethylamino)-6-methylpyrimidin-2-yl]amino}-N-(4-methylbenzyl)cyclohexanecarboxamide], the class is 1.
On to `Cc1cc(N(C)C)nc(N[C@H]2CC[C@@H](C(=O)NCc3cc(Cl)cc(Cl)c3)CC2)n1` [Example 2575, cis-N-(3,5-dichlorobenzyl)-4-{[4-(dimethylamino)-6-methylpyrimidin-2-yl]amino}cyclohexanecarboxamide], for which the class is reported as 1.
Same read-out and setting: next, `COc1cc(CNC(=O)[C@H]2CC[C@@H](Nc3nc(C)cc(N(C)C)n3)CC2)cc(OC)c1` [Example 2576, cis-N-(3,5-dimethoxybenzyl)-4-{[4-(dimethylamino)-6-methylpyrimidin-2-yl]amino}cyclohexanecarboxamide]: 1; `Cc1cc(N(C)C)nc(N[C@H]2CC[C@@H](C(=O)NCc3cccc(Cl)c3)CC2)n1` [Example 2577, cis-N-(3-chlorobenzyl)-4-{[4-(dimethylamino)-6-methylpyrimidin-2-yl]amino}cyclohexanecarboxamide]: 1; `Cc1cc(N(C)C)nc(N[C@H]2CC[C@@H](C(=O)NCc3cc(C(F)(F)F)cc(C(F)(F)F)c3)CC2)n1` [Example 2578, cis-N-[3,5-bis(trifluoromethyl)benzyl]-4-{[4-(dimethylamino)-6-methylpyrimidin-2-yl]amino}cyclohexanecarboxamide]: 1.
On the same count and under the same terms, next, `COc1cccc(CNC(=O)[C@H]2CC[C@@H](Nc3nc(C)cc(N(C)C)n3)CC2)c1` [Example 2579, cis-4-{[4-(dimethylamino)-6-methylpyrimidin-2-yl]amino}-N-(3-methoxybenzyl)cyclohexanecarboxamide]: 1; `Cc1cc(N(C)C)nc(N[C@H]2CC[C@@H](C(=O)NCc3ccc(Cl)cc3)CC2)n1` [Example 2580, cis-N-(4-chlorobenzyl)-4-{[4-(dimethylamino)-6-methylpyrimidin-2-yl]amino}cyclohexanecarboxamide]: 1.
With `Cc1cc(N(C)C)nc(N[C@H]2CC[C@@H](C(=O)NCc3ccc(Cl)c(Cl)c3)CC2)n1` [Example 2581, cis-N-(3,4-dichlorobenzyl)-4-{[4-(dimethylamino)-6-methylpyrimidin-2-yl]amino}cyclohexanecarboxamide], the class worked out at 1.
The same measure, in the same setting: next, `Cc1cc(N(C)C)nc(N[C@H]2CC[C@@H](C(=O)NCc3ccc(F)cc3F)CC2)n1` [Example 2582, cis-N-(2,4-difluorobenzyl)-4-{[4-(dimethylamino)-6-methylpyrimidin-2-yl]amino}cyclohexanecarboxamide]: 1; `Cc1cc(N(C)C)nc(N[C@H]2CC[C@@H](C(=O)NCc3cc(F)ccc3F)CC2)n1` [Example 2583, cis-N-(2,5-difluorobenzyl)-4-{[4-(dimethylamino)-6-methylpyrimidin-2-yl]amino}cyclohexanecarboxamide]: 1; `Cc1cc(N(C)C)nc(N[C@H]2CC[C@@H](C(=O)NCc3cccc(F)c3F)CC2)n1` [Example 2584, cis-N-(2,3-difluorobenzyl)-4-{[4-(dimethylamino)-6-methylpyrimidin-2-yl]amino}cyclohexanecarboxamide]: 1.
Consider `Cc1cc(N(C)C)nc(N[C@H]2CC[C@@H](C(=O)NCc3ccc(Br)cc3F)CC2)n1` [Example 2585, cis-N-(4-bromo-2-fluorobenzyl)-4-{[4-(dimethylamino)-6-methylpyrimidin-2-yl]amino}cyclohexanecarboxamide], for which the class is 1.
Consider `Cc1cccc(CNC(=O)[C@H]2CC[C@@H](Nc3nc(C)cc(N(C)C)n3)CC2)c1` [Example 2586, cis-4-{[4-(dimethylamino)-6-methylpyrimidin-2-yl]amino}-N-(3-methylbenzyl)cyclohexanecarboxamide], for which the class is listed as 1.
Turning to `Cc1cc(N(C)C)nc(N[C@H]2CC[C@@H](C(=O)NCc3ccccc3OC(F)(F)F)CC2)n1` [Example 2587, cis-4-{[4-(dimethylamino)-6-methylpyrimidin-2-yl]amino}-N-[2-(trifluoromethoxy)benzyl]cyclohexanecarboxamide], the class was determined as 1.
As to `COc1cccc(C(=O)N[C@H]2CC[C@@H](Nc3cc(N(C)C)c4ccccc4n3)CC2)c1` [compound 20, N-(cis-4-{[4-(dimethylamino)quinolin-2-yl]amino}cyclohexyl)-3-methoxybenzamide], the class under setting [1] was 2 (Class 2: The value of percent of control at 10^−7 M was from 40% to 60% or the value of IC′50 was from 50 nM to 200 nM.).
With `CN(C)c1cc(N[C@H]2CC[C@@H](NC(=O)c3cccc(Br)c3)CC2)nc2ccccc12` [compound 21], under setting [1], the class is on record as 1 (Class 1: The value of percent of control at 10^−7 M was less than 40% or the value of IC50 was less than 50 nM.).
Still for that read-out and setting: with `CN(C)c1cc(N[C@H]2CC[C@@H](NC(=O)c3ccc(Br)cc3)CC2)nc2ccccc12` [compound 22] the figure was 2 (Class 2: The value of percent of control at 10^−7 M was from 40% to 60% or the value of IC′50 was from 50 nM to 200 nM.).
The same measure, in the same setting: next, `CN(C)c1cc(N[C@H]2CC[C@@H](NC(=O)c3ccc4nonc4c3)CC2)nc2ccccc12` [compound 23, N-(cis-4-{[4-(dimethylamino)quinolin-2-yl]amino}cyclohexyl)-2,1,3-benzoxadiazole-5-carboxamide]: 1 (Class 1: The value of percent of control at 10^−7 M was less than 40% or the value of IC50 was less than 50 nM.); `CN(C)c1cc(N[C@H]2CC[C@@H](NC(=O)c3cccc(Cl)c3)CC2)nc2ccccc12` [compound 24]: 1 (Class 1: The value of percent of control at 10^−7 M was less than 40% or the value of IC50 was less than 50 nM.).
The same measure, in the same setting: with `CN(C)c1cc(N[C@H]2CC[C@@H](NC(=O)c3ccc(Cl)cc3)CC2)nc2ccccc12` [compound 25] the figure was 1 (Class 1: The value of percent of control at 10^−7 M was less than 40% or the value of IC50 was less than 50 nM.); with `CN(C)c1cc(N[C@H]2CC[C@@H](NC(=O)/C=C/c3ccccc3)CC2)nc2ccccc12` [compound 26], 3 (Class 3 The value of percent of control at 10^−7 M was more than 60% or the value of IC50 was more than 200 nM.).
